Test results as given in PubChem BioAssay (NCI).
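Dose response: 5 concentrations. Exposure: 48 h. Format: 96-well plates. Endpoint: linear interpolation; highest concentration if not reached. GI50 is the concentration that inhibits growth by half. TGI is the concentration that stops growth completely.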

Legend:
Assay in all cases: inhibition of tumour cell growth, NCI panel, 48 h
[1] = test system: SK-OV-3 ovarian
[2] = test system: SF-539 CNS
[3] = test system: COLO 205 colon
[4] = test system: SK-MEL-5 melanoma
[5] = test system: MALME-3M melanoma
[6] = test system: UACC-257 melanoma
[7] = test system: SW-620 colon
[8] = test system: RPMI-8226 leukemia
[9] = test system: HS 578T breast
[10] = test system: UACC-62 melanoma

Row | Compound | TGI [1] [µM] | TGI [2] [µM] | TGI [3] [µM] | TGI [4] [µM] | TGI [5] [µM] | TGI [6] [µM] | TGI [7] [µM] | TGI [8] [µM] | TGI [9] [µM] | TGI [10] [µM] | GI50 [1] [µM] | GI50 [2] [µM] | GI50 [3] [µM] | GI50 [4] [µM] | GI50 [5] [µM] | GI50 [6] [µM] | GI50 [7] [µM] | GI50 [8] [µM] | GI50 [9] [µM] | GI50 [10] [µM]
1 | COC(=O)C1C(=O)C(C(=O)OC)C2CCC1N2C (stereo not given) | > 100 | > 100 | > 100 | > 100 | 51.9 | > 100 | > 100 | > 100 | > 100 | > 100 | – | – | – | – | – | – | – | – | – | –
2 | N#CC(Cl)CS(=O)(=O)c1ccccc1 (stereo not given) | 33.6 | 28.5 | 3.8 | 29.6 | 4.54 | 14 | 3.75 | 14.1 | > 100 | 26.5 | – | – | – | – | – | – | – | – | – | –
3 | CCc1nc(N)nc(N)c1-c1ccc(N2CCNCC2)c([N+](=O)[O-])c1 | > 100 | > 100 | 40.5 | 28.3 | 37.3 | 57.7 | > 100 | > 100 | > 74.2 | > 100 | – | – | – | – | – | – | – | – | – | –
4 | Cc1cc(NS(=O)(=O)c2ccc(-c3cnc(C4CC4)o3)cc2)ccc1Cl | 20.8 | 4.09 | 5.8 | 11.5 | 26.5 | 18.2 | 15 | > 52.1 | 11.5 | 12.3 | 0.868 | 0.281 | 0.305 | 0.253 | 12.1 | 1.77 | 0.13 | 0.329 | 0.233 | 0.117
5 | CCN(CC)CCOc1ccc(/C(=C(\C)Cc2ccc(OC)cc2)c2ccc(O)cc2)cc1 | 7.38 | 3.24 | 3.42 | 3 | 3.28 | 3.81 | 3.37 | 3.88 | 4.22 | 3.32 | 2.48 | 1.75 | 1.71 | 1.63 | 1.73 | 1.89 | 1.7 | 1.79 | 1.69 | 1.81
6 | COc1cccc(N2C(=N)/C(=C3\Nc4ccccc4S3)CC2=O)c1 | > 100 | > 100 | > 100 | > 100 | > 100 | > 100 | > 100 | > 100 | > 100 | > 100 | 1.77 | 5.4 | 9.25 | 7.78 | > 100 | > 100 | 4.87 | 2.73 | 27.5 | > 100
7 | O=C1NC(=NCCc2ccccc2F)S/C1=C\c1ccc2ncccc2c1 | > 25 | > 25 | > 25 | 19.4 | > 25 | > 25 | > 25 | 24.9 | > 23.4 | > 25 | 7.82 | 5.18 | 6.54 | 5.85 | 11.4 | 9.35 | 2.73 | 4.18 | 7.05 | 7.1
